Results as given in ChEMBL document CHEMBL5230129, “Antibacterial activities with the structure-activity relationship of coumarin derivatives” (2020).
Values after ≈ are worked out from the molar mass of the structure shown.

Columns and labels:
Assay type in all cases: functional
[1] = system: Klebsiella pneumoniae; assay: Antibacterial activity against Klebsiella pneumoniae assessed as zone of inhibition incubated for 24 hrs by disk diffusion assay
[2] = system: Bacillus cereus; assay: Antibacterial activity against Bacillus cereus ATCC-14579 assessed as zone of inhibition incubated for 24 hrs by paper disk diffusion assay
[3] = system: Staphylococcus aureus; assay: Antibacterial activity against Staphylococcus aureus NCTC-7447 assessed as zone of inhibition incubated for 24 hrs by paper disk diffusion assay
[4] = system: Staphylococcus epidermidis; assay: Antibacterial activity against Staphylococcus epidermidis ATCC 12228 assessed as inhibition of bacterial growth incubated for 20 hrs by broth doubling dilution assay
[5] = system: Micrococcus luteus; assay: Antibacterial activity against Micrococcus luteus ATCC 9341 assessed as inhibition of bacterial growth incubated for 20 hrs by broth doubling dilution assay
[6] = system: Bacillus cereus; assay: Antibacterial activity against Bacillus cereus ATCC 10702 assessed as inhibition of bacterial growth incubated for 20 hrs by broth doubling dilution assay
[7] = system: Bacillus subtilis; assay: Antibacterial activity against Bacillus subtilis assessed as inhibition of bacterial growth relative to control
[8] = system: Escherichia coli; assay: Antibacterial activity against Escherichia coli assessed as inhibition of bacterial growth relative to control
[9] = system: Staphylococcus aureus; assay: Antibacterial activity against Staphylococcus aureus MTCC 96 assessed as inhibition of bacterial growth incubated for 18 to 20 hrs by broth microdilution assay; settings: time 18-20 hrs
[10] = system: Pseudomonas aeruginosa; assay: Antibacterial activity against Pseudomonas aeruginosa MTCC 1034 assessed as inhibition of bacterial growth by broth micro dilution assay
[11] = system: Staphylococcus aureus; assay: Antibacterial activity against Staphylococcus aureus ATCC-29213 assessed as inhibition of bacterial growth incubated for 16 hrs by agar-well diffusion assay
[12] = system: Staphylococcus aureus; assay: Antibacterial activity against Staphylococcus aureus assessed as inhibition of bacterial growth by broth dilution assay
[13] = system: Staphylococcus aureus; assay: Antibacterial activity against Staphylococcus aureus assessed as inhibition of bacterial growth by broth micro dilution assay
[14] = system: Pseudomonas aeruginosa; assay: Antibacterial activity against Pseudomonas aeruginosa assessed as inhibition of bacterial growth incubated for 24 hrs by broth microdilution assay
[15] = system: Bacillus; assay: Antibacterial activity against Bacillus assessed as inhibition of bacterial growth by broth micro dilution assay
[16] = system: Pseudomonas; assay: Antibacterial activity against Pseudomonas assessed as zone of inhibition
[17] = system: Staphylococcus aureus; assay: Antibacterial activity against Staphylococcus aureus MTCC 3160 assessed as inhibition of bacterial growth by broth micro dilution assay
[18] = system: Bacillus subtilis; assay: Antibacterial activity against Bacillus subtilis assessed as inhibition of bacterial growth by broth dilution assay
[19] = system: Escherichia coli; assay: Antibacterial activity against Escherichia coli MTCC 443 assessed as inhibition of bacterial growth incubated for 18 to 20 hrs by broth microdilution assay; settings: time 18-20 hrs
[20] = system: Escherichia coli; assay: Antibacterial activity against Escherichia coli MTCC 40 assessed as zone of inhibition incubated for 24 hrs by well-plate method
[21] = system: Staphylococcus aureus; assay: Antibacterial activity against Staphylococcus aureus MTCC 121 assessed as zone of inhibition incubated for 24 hrs by well-plate method
[22] = system: Staphylococcus aureus; assay: Antibacterial activity against Staphylococcus aureus MTCC 121 assessed as inhibition of bacterial growth incubated for 24 hrs by well-plate method
[23] = system: Escherichia coli; assay: Antibacterial activity against Escherichia coli MTCC 40 assessed as inhibition of bacterial growth incubated for 24 hrs by well-plate method
[24] = system: Pseudomonas aeruginosa; assay: Antibacterial activity against Pseudomonas aeruginosa assessed as zone of inhibition incubated for 24 to 48 hrs by agar well diffusion assay; settings: time 24-48 hrs
[25] = system: Staphylococcus aureus; assay: Antibacterial activity against Staphylococcus aureus assessed as zone of inhibition incubated for 24 to 48 hrs by agar well diffusion assay; settings: time 24-48 hrs
[26] = system: Helicobacter pylori; assay: Antibacterial activity against Helicobacter pylori ATCC43504 assessed as inhibition of bacterial growth incubated for 72 hrs by micro-dilution broth assay
[27] = system: Escherichia coli; assay: Antibacterial activity against Escherichia coli MTCC 1586 assessed as zone of inhibition incubated overnight by Kirby-Bauer disc diffusion method
[28] = system: Staphylococcus aureus; assay: Antibacterial activity against Staphylococcus aureus MTCC 740 assessed as zone of inhibition incubated overnight by Kirby-Bauer disc diffusion method
[29] = system: Staphylococcus aureus; assay: Antibacterial activity against Staphylococcus aureus assessed as zone of inhibition incubated for 24 hrs by well-diffusion method
[30] = system: Escherichia coli; assay: Antibacterial activity against Escherichia coli assessed as zone of inhibition incubated for 24 hrs by well-diffusion method
[31] = system: Pseudomonas aeruginosa; assay: Antibacterial activity against Pseudomonas aeruginosa assessed as zone of inhibition incubated for 24 hrs by well-diffusion method
[32] = system: Micrococcus luteus; assay: Antibacterial activity against Micrococcus luteus assessed as zone of inhibition incubated for 24 hrs by well-diffusion method
[33] = system: Staphylococcus aureus; assay: Antibacterial activity against Staphylococcus aureus ATCC 25923 assessed as zone of inhibition incubated for 24 hrs by paper disk method
[34] = system: Escherichia coli; assay: Antibacterial activity against Escherichia coli ATCC 25922 assessed as zone of inhibition incubated for 24 hrs by paper disk method
[35] = system: Pseudomonas aeruginosa; assay: Antibacterial activity against Pseudomonas aeruginosa ATCC 27853 assessed as zone of inhibition incubated for 24 hrs by paper disk method

Cc1cc(=O)oc2cc(OCc3nnc(Nc4ccc(Cl)cc4)s3)ccc12
inhibition zone (IZ) [1]: 15 mm

O=c1oc2ccccc2c(O)c1-c1ccn(-c2ccccc2)n1
inhibition zone (IZ) [2]: 16 mm | inhibition zone (IZ) [3]: 20 mm

Cc1c(O)c(C(=O)CCc2ccccc2)c2oc(=O)cc(-c3ccccc3)c2c1O
MIC [4]: 1 µg/mL (≈ 2.5 µM) | MIC [5]: 2 µg/mL (≈ 4.99 µM) | MIC [6]: 2 µg/mL (≈ 4.99 µM)

COC(=O)c1nnn(CC(=O)c2cc3cc(Cl)ccc3oc2=O)c1C(=O)OC
inhibition (INH) [7]: 83.3% | inhibition (INH) [8]: 83.3%

O=C(O)c1cn(C2CC2)c2cc(N3CCNCC3)c(F)cc2c1=O [CIPROFLOXACIN]
MIC [9]: 50 µg/mL (≈ 151 µM) | MIC [10]: 1.6 µg/mL (≈ 4.83 µM) | inhibition (INH) [7]: 100% | MIC [11]: 10 µg/mL (≈ 30.2 µM) | inhibition (INH) [8]: 100% | MIC [12]: 2 µg/mL (≈ 6.04 µM) | MIC [13]: 2 µg/mL (≈ 6.04 µM) | MIC [14]: 49 µg/mL (≈ 148 µM) | MIC [15]: 2 µg/mL (≈ 6.04 µM) | inhibition zone (IZ) [16]: 7.5 mm | MIC [17]: 1.6 µg/mL (≈ 4.83 µM) | MIC [18]: 2 µg/mL (≈ 6.04 µM) | MIC [19]: 25 µg/mL (≈ 75.4 µM)

CN[C@@H]1[C@H](O[C@H]2[C@H](O[C@H]3[C@H](O)[C@@H](O)[C@H](N=C(N)N)[C@@H](O)[C@@H]3N=C(N)N)O[C@@H](C)[C@]2(O)C=O)O[C@@H](CO)[C@H](O)[C@H]1O [STREPTOMYCIN]
inhibition zone (IZ) [20]: 22 mm | inhibition zone (IZ) [21]: 20 mm | MIC [22]: 12.5 µg/mL (≈ 21.5 µM) | MIC [23]: 12.5 µg/mL (≈ 21.5 µM)

COc1cc(COc2cn(CCOc3cc(=O)oc4ccccc34)nn2)ccc1/C=C/C(=O)/C=C/c1ccc(OC)c(OC)c1
inhibition zone (IZ) [24]: 7 mm | inhibition zone (IZ) [25]: 8 mm

Cc1cc(=O)oc2cc(O)ccc12 [HYMECROMONE]
MIC [26]: 50 µg/mL (≈ 284 µM)

COc1ccc2c(CC(=O)O)cc(=O)oc2c1
MIC [26]: 49 µg/mL (≈ 209 µM)

CC[N+](CC)(CC)CCCCCCNCc1cn(Cc2cc(=O)oc3cc4c(cc23)CCC(C)(C)O4)nn1.[Br-]
inhibition zone (IZ) [27]: 10 mm | inhibition zone (IZ) [28]: 12 mm

CO/N=C(\C(=O)N[C@@H]1C(=O)N2C(C(=O)O)=C(COC(C)=O)CS[C@H]12)c1csc(N)n1 [CEFOTAXIME]
inhibition zone (IZ) [29]: 11 mm | inhibition zone (IZ) [30]: 11 mm | inhibition zone (IZ) [31]: 11 mm | inhibition zone (IZ) [32]: 11 mm

COc1ccc(CNC(=O)COc2cc(=O)oc3ccccc23)c(OC)c1
inhibition zone (IZ) [33]: 10 mm | inhibition zone (IZ) [34]: 13 mm | inhibition zone (IZ) [35]: 12 mm

Cc1cc(=O)oc2c1=CCC(Cl)C=2C1C(C#N)=C(N)Oc2c1c(=O)oc1ccccc21 (stereo not given)
MIC [17]: 0.8 µg/mL (≈ 1.84 µM)

O=c1oc2ccccc2c(O)c1C(c1c(Cl)cccc1Cl)c1c(O)c2ccccc2oc1=O
inhibition zone (IZ) [29]: 10 mm | inhibition zone (IZ) [30]: 10 mm | inhibition zone (IZ) [31]: 10 mm | inhibition zone (IZ) [32]: 10 mm

COc1cccc(/C=C/C(=O)/C=C/c2ccc(COc3cn(CCOc4cc(=O)oc5ccccc45)nn3)cc2OC)c1
inhibition zone (IZ) [24]: 7 mm | inhibition zone (IZ) [25]: 8 mm

COc1ccc(Nc2nnc(COc3ccc4c(C)cc(=O)oc4c3)s2)cc1
inhibition zone (IZ) [1]: 15 mm

Cc1cc(=O)oc2c1=CCC(O)C=2C1C(C#N)=C(N)Oc2c1c(=O)oc1ccccc21 (stereo not given)
MIC [10]: 1.6 µg/mL (≈ 3.84 µM) | MIC [17]: 0.4 µg/mL (≈ 0.961 µM)

CC[N+](CC)(CC)CCCCCCCCNCc1cn(Cc2cc(=O)oc3c(OC)c4c(cc23)CCC(C)(C)O4)nn1.[Br-]
inhibition zone (IZ) [27]: 2 mm | inhibition zone (IZ) [28]: 0 mm
